Data: patent publication US7182950B2, “Nano-sized self-assembled liquid dilutable vehicles” (Nutralease Ltd., priority 2002, dated 2007)

Assays:
[1] = format: physicochemical
Excerpt: The invention will now be described with reference to some non-limiting specific embodiments. The invention will first be illustrated in reference to the attached drawings to be followed by a more detailed description below. Turning to FIG. 1, there are shown two different phase diagrams (1A and 1B) of ternary systems comprising oil/water/surfactant according to the prior art. Such a ternary system forms microemulsions. As a function of the relative amounts of each of the three components one may achieve a two-phase or a mono-phase liquid concentrate comprising of the microemulsion where the boundaries of the stable phases depend on the relative concentration of each component. […] A two-phase region at equilibrium, at 35, prevails at all other concentrations of the ternary system. […] A one phase stable isotropic region exists at 65. Turning to FIG. 2, a general ternary phase diagram 80 describing the nano-sized self-assembled structured concentrates of the present invention, A rather small two-phase concentrate region 90 and a large stable one-phase at 100 region are present. A micellar concentrate of the nano-sized self-assembled structures exists at 110, i.e. there is no aqueous phase. Adding a small amount of aqueous phase results in an oil continuous phase, which is actually water in oil (W/O) region at 120A, 120B and 120C along the tree dilution lines. Addition of an increasing amount of aqueous solution results in a bi-continuous region at 130A, 130B and 130C along the three dilution lines. At the point where the amount of aqueous solution is greater than that of the oil phase there exists an aqueous continuous phase, which is actually an oil in water (O/W) region generally at 140A, 140B and 140C along the three dilution lines. Direct micelles exist only at the extreme at 150. It should be noted that along each concentration line as the concentration of the surfactant increases, the oil continuous phase may decrease is size while the bicontinuous and water continuous phases may increase in size. Turning to FIG. 3, a ternary phase diagram 170 describing another nanosized-structured concentrate of the present invention is shown. The oil phase, which is the desired solvent for achieving a single-phase system, is α-tocopherol acetate. The aqueous system comprises of water and a co-solvent—propylene glycol. As shown, a major portion of the four-component system is in one stable region 180, while only a minor portion 190 is a two-phase system. Phase diagrams, solubilization factors and efficiency of solubilization for lycopene, phytosterol and lutein in ternary systems according to lo the present invention are given in FIGS. 4–6. […] It should be noted that the ratio between each of the components of the oil phase to the surfactant is 1:3. […] As shown, upon further dilution with water, tie solubilization of lycopene drops over the dilution factor. In case the system is diluted from 67% water to 80% water, the dilution factor (from inversion) is 80/67=1.19. The solubilization on the other hand decreases by a factor of 450/312.5=1.44. This indicates structural change in the nano-sized self-assembled concentrates. Turning to FIG. 4C, the efficiency of the solubilization in the described system is represented (α). The efficiency factor, α, is defined as lycopene/oil(wt/wt)X 100. As shown, the maximum solubilization on an oil base is 0.8 wt %. […] Tuming to FIG. 4D, there is shown the solubilization capacity of the lycopene as a function of the nature of the surfactant system. As shown, for the case where the surfactant is Tween 60, the efficiency factor (solubilization based on the oil phase) is 0.8 wt %. However, this value is increased to 1.05, 1.1, 1.1 and 1.16 (wt %) for the cases where the surfactant is ethoxylated monoglycerides (EM), triglycerol monooleate (TM), sugar ester (SE), and a mixture of SE+EM, respectively. It should be noted that such efficiency factors are equivalent to a solubilization factor of up to 25 fold. […]

[2] = Solubility of lycopene in oil (oil dissolution capacity); format: physicochemical
Excerpt: The invention will now be described with reference to some non-limiting specific embodiments. The invention will first be illustrated in reference to the attached drawings to be followed by a more detailed description below. Turning to FIG. 1, there are shown two different phase diagrams (1A and 1B) of ternary systems comprising oil/water/surfactant according to the prior art. Such a ternary system forms microemulsions. As a function of the relative amounts of each of the three components one may achieve a two-phase or a mono-phase liquid concentrate comprising of the microemulsion where the boundaries of the stable phases depend on the relative concentration of each component. […] A two-phase region at equilibrium, at 35, prevails at all other concentrations of the ternary system. […] A one phase stable isotropic region exists at 65. Turning to FIG. 2, a general ternary phase diagram 80 describing the nano-sized self-assembled structured concentrates of the present invention, A rather small two-phase concentrate region 90 and a large stable one-phase at 100 region are present. A micellar concentrate of the nano-sized self-assembled structures exists at 110, i.e. there is no aqueous phase. Adding a small amount of aqueous phase results in an oil continuous phase, which is actually water in oil (W/O) region at 120A, 120B and 120C along the tree dilution lines. […]

**Q.** For CC1=C[C@H](O)CC(C)(C)[C@H]1/C=C/C(C)=C/C=C/C(C)=C/C=C/C=C(C)/C=C/C=C(C)/C=C/C1=C(C)C[C@@H](O)CC1(C)C [free lutein], which “Concentration (%) of free lutein” value [1] is on record?
**A.** 0.006%

**Q.** Which “Aqueous solution concentration at which maximum solubilization occurs (bi continuous region)” value [1] does the source give for CC1=C[C@H](O)CC(C)(C)[C@H]1/C=C/C(C)=C/C=C/C(C)=C/C=C/C=C(C)/C=C/C=C(C)/C=C/C1=C(C)C[C@@H](O)CC1(C)C [lutein] here?
**A.** 40 to 60%

**Q.** What about the “Increase of solubilization capacity over aqueous or oil phase alone or with surfactant” value [1] of the same molecule?
**A.** 7-20 fold

**Q.** And the “Solubilization in the oil in water (O/W) region” value [1]?
**A.** limited solubilization

**Q.** Which results are given for CC(C)=CCC/C(C)=C/C=C/C(C)=C/C=C/C(C)=C/C=C/C=C(C)/C=C/C=C(C)/C=C/C=C(\C)CCC=C(C)C [lycopene]?
**A.** Concentration (%) of lycopene [1]: 0.02%; Efficiency factor α, lycopene/oil (wt/wt) x 100, maximum solubilization on an oil base [1]: 0.8 wt %; Factor of decrease of solubilization on dilution [1]: 1.44; Increase of solubilization capacity over aqueous or oil phase alone or with surfactant [1]: 7-20 fold; Maximum solubility (solubility capacity) in 1 Kg of nano-sized self-assembled structured concentrate [1]: 450 mg; Maximum solubilization [1]: 0.45 % (wt); Solubility capacity in 1 Kg of concentrate after dilution [1]: 312.5 mg; Solubilization factor [1]: up to 25 fold; Solubilization relative to the oil dissolution capacity [1]: up to 17.7 fold; Solubility of lycopene in oil [2]: ca. 0.045 wt %

**Q.** With lutein ester as the molecule, how does the “Concentration (%) of lutein ester” value [1] read?
**A.** 0.047%

**Q.** Which results are given for phytosterol?
**A.** Concentration (%) of phytosterol [1]: 1.0%; Efficiency factor α, phytosterol/oil (wt/wt) x 100, maximum solubilization on an oil base [1]: 16.7 wt %; Increase of solubilization capacity over aqueous or oil phase alone or with surfactant [1]: 7-20 fold; Maximum solubilization [1]: 1.65 % (wt); Maximum solubilization in 1 Kg of nano-sized self-assembled structured concentrate [1]: 165 mg; Solubilization decrease factor on dilution [1]: 3.6; Solubilization factors [1]: 6, 7; Solubilization in 1 Kg of concentrate after dilution [1]: 45 mg
